Where a SMILES comes first, the peptide text is derived from it. [ ]: non-standard residue; d: D form. dPhe(4-Cl) = N[C@H](Cc1ccc(Cl)cc1)C(=O)O; d2Nal = N[C@H](Cc1ccc2ccccc2c1)C(=O)O; Lys(iPr) = CC(C)NCCCC[C@H](N)C(=O)O; NMeY = CN[C@@H](Cc1ccc(O)cc1)C(=O)O; d3Pal = N[C@H](Cc1cccnc1)C(=O)O
Tests used:
[1] = test system: sex steroids; details: single injection of sufficient dose; cited from earlier work
[2] = test system: thymus, spleen and lymph node cell numbers; assay: Chemical castration compared to surgical castration, T cell regeneration after cyclophosphamide; type: in vivo; details: mice
From the text: FIG. 9: Changes in thymus (open bars), spleen (gray bars) and lymph node (black bars) cell numbers following treatment with cyclophosphamide, a chemotherapy agent, and surgical or chemical castration performed on the same day. Note the rapid expansion of the thymus in castrated animals when compared to the non-castrate (cyclophosphamide alone) group at 1 and 2 weeks post-treatment. In addition, spleen and lymph node numbers of the castrate group were well increased compared to the cyclophosphamide alone group. (n=34 per treatment group and time-point).
T cell Depletion Using Cyclophosphamide. Old mice (e.g., 2 years old) were injected with cyclophosphamide (200 mg/kg body wt over two days) and castrated.
FIG. 9 illustrates the use of chemical castration compared to surgical castration in enhancement of T cell regeneration. […] The enhancing effects were equivalent on thymic expansion and also the recovery of spleen and lymph node. The kinetics of chemical castration are slower than surgical, that is, mice take about 3 weeks longer to decrease their circulating sex steroid levels. However, chemical castration is still as effective as surgical castration and can be considered to have an equivalent effect.

[3] = G-CSF with or without Lupron in small cell lung cancer patients on chemotherapy (Example 26); type: in vivo, human
[4] = GnRH analog before allogeneic BMT (Example 27); type: in vivo, human
Protocol: In a randomized unblinded study 20 patients are treated with a GnRH analog prior to receiving a BMT. This patient group is to a control group (n=19) who also undergo a BMT, but will not receive a GnRH analog.
All patients receive an allogeneic graft from a matched donor in accordance with accepted medical techniques (Lincz et al., (2001) Leuk. and Lymph. 40: 373).
Prior to transplant, the BM from all patients is ablated using standard ablating drugs and techniques (Segeren et al., (1999). Br. J. Haem. 105:127-130).
Blood samples from each patient are drawn at days −21, −2, 0, 1, 2, 3, 7, 10, 14 and 21. The blood samples are then evaluated for WBC, neutrophils, T cells (by FACS analysis, as described in detail above), granulocytes levels, and hematocrit, using the methods described in detail elsewhere herein, as well as methods well known to those skilled in the art.
Additionally, all patients are monitored for infection rates (including viral infection), the use of antibiotics, febrile neutropenia, and mean days of severe neutropenia (ANC<0.5×10^9/L). These analyses are performed as outlined above, with the patients being followed up at 1 month, 3 months, 6 months and 9 months from the date of transplant.

[5] = GnRH agonist in metastatic prostate cancer, haemopoiesis and neutrophil count (Example 28); type: in vivo, human; details: within the first 14 days of therapy
Protocol: All patients also received an anti-androgen drug. Cosudex® may also be given (5 mg/day or 50 mg/day orally) for 1 month. All patients undergo a Full Blood Analysis (FBA) prior to the commencement of therapy. FBA involves standard pathology analysis of lymphocytes, white blood cells, hematocrit and red blood cell content. In addition, analysis of immunological parameters including T cell stimulation, cytokine production, immune cell subsets and TREC analysis are performed. Additionally, blood samples from each patient are drawn at days −2, 0, 1, 2, 3, 7, 10, 14, 21, and 28, and monthly thereafter for 6 months. The blood samples are then evaluated for WBC, neutrophils, T cells (by FACS analysis, as described in detail above), granulocytes levels, and hematocrit, using the methods described in detail elsewhere herein, as well as methods well known to those skilled in the art.

[6] = test system: H1N1 strains of Influenza; type: in vivo, human; details: patients in all groups, after influenza vaccination
[7] = test system: sex steroids; details: 30 mg injection; cited from earlier work
[8] = test system: thymic cellularity; assay: IL-7 administration with or without castration in allogeneic HSCT recipients, thymic cellularity; type: in vivo, mice
From the text: Mice and HSCT. Male C57BL/6J (B6, H-2b), C3FeB6F1/J([B6 3 C3H]F1; H-2b/k), B10.BR (H-2k), B6D2F1/J (H-2b/d), CBA/J (H-2k), Balb/c (H2-d), IL7−/− and KGF−/− mice were obtained from the Jackson Laboratory (Bar Harbor, Me.) and used in experiments when they were between 8 and 12 weeks of age. KGF−/− and IL7−/− were used between 4 and 7 months of age. HSCT protocols were approved by the Memorial Sloan-Kettering Cancer Center Institutional Animal Care and Use Committee. The BM cells were removed aseptically from femurs and tibias. Donor BM was depleted of T cells by incubation with anti-Thy-1.2 for 30 mins. at 4° C. followed by incubation with Low-TOX-M rabbit complement (Cedarlane Laboratories, Hornby, ON, Canada) for 1 hour at 37° C. Splenic T cells (for GVHD analysis) were obtained by purification over a nylon wool column followed by red cell removal with ammonium chloride red cell lysis buffer. Cells (5×10^6 BM cells with or without splenic T cells and leukemia cells) were resuspended in Dulbecco modified essential medium (Life Technologies, Grand Island, N.Y.) and transplanted by tail vein infusion (0.25 mL total volume) into lethally irradiated recipients on day 0. Prior to transplantation, on day 0, recipients received 1300 cGy total body irradiation (^137Cs source) as split dose with 3 hours between doses (to reduce gastrointestinal toxicity). Mice were housed in sterilized microisolator cages and received normal chow and autoclaved hyperchlorinated drinking water (pH 3.0).
Administration of IL-7. IL-7 were either given from days 0 to 13 or 21 to 27 intraperitoneally at 10 μg/day for immune reconstitution studies. PBS was injected into control mice at the same time-points.
Flow Cytometric Analysis. BM cells, splenocytes or thymocytes were washed in FACS buffer (phosphate buffered saline (PBS)/2% bovine serum albumin (BSA)/0.1% azide) and 1-3×10^6 cells were incubated for 30 mins. at 4° C. with CD16/CD32 FcR block. Cells were then incubated for 30 mins. at 4° C. with primary antibodies and washed twice with FACS buffer. Where necessary, cells were incubated with conjugated Streptavidin for a further 30 mins. at 4° C. The stained cells were resuspended in FACS buffer and analyzed on a FACSCalibur™ flow cytometer (Becton Dickinson, San Jose, Calif.) with CellQuest™ software.

[9] = test system: IL-7-dependent murine pre-B cell line 2E8; assay: Thymidine incorporation proliferation assay with IL-7-dependent pre-B cell line; type: cell-based; details: 2E8 cell line
Protocol: Tissue culture medium consisted of RPMI 1640 supplemented with 10% heat inactivated fetal calf serum, 100 U/mL penicillin, […] streptomycin, and 2 mM L-glutamine (as well as […] 2-mercaptoethanol for the culture of 32Dp210 cells and proliferation assays).

[10] = cited from earlier work

CC(=O)N[C@H](Cc1ccc2ccccc2c1)C(=O)N[C@H](Cc1ccc(Cl)cc1)C(=O)N[C@H](Cc1cccnc1)C(=O)N[C@@H](CO)C(=O)N(C)[C@@H](Cc1ccc(O)cc1)C(=O)N[C@H](CC(N)=O)C(=O)N[C@@H](CC(C)C)C(=O)N[C@@H](CCCCNC(C)C)C(=O)N1CCC[C@H]1C(=O)N[C@H](C)C(N)=O [Abarelix, abarelix] (Ac-[d2Nal][dPhe(4-Cl)][d3Pal]S[NMeY][dN]L[Lys(iPr)]P[dA]-NH2)
time to castration [1]: 5 to 8 days

CCNC(=O)[C@@H]1CCCN1C(=O)[C@H](CCCN=C(N)N)NC(=O)[C@H](CC(C)C)NC(=O)[C@@H](Cc1c[nH]c2ccccc12)NC(=O)[C@H](Cc1ccc(O)cc1)NC(=O)[C@H](CO)NC(=O)[C@H](Cc1c[nH]c2ccccc12)NC(=O)[C@H](Cc1cnc[nH]1)NC(=O)[C@@H]1CCC(=O)N1 [Deslorelin]
additional time to decrease circulating sex steroid levels versus surgical castration [2]: about 3 weeks | rate of regeneration post-cyclophosphamide treatment compared to surgical castration ([2]; injected for four weeks): comparable rate of regeneration | enhancing effects on thymic expansion and recovery of spleen and lymph node versus surgical castration ([2]; post-cyclophosphamide): equivalent

CCNC(=O)[C@@H]1CCCN1C(=O)[C@H](CCCNC(=N)N)NC(=O)[C@H](CC(C)C)NC(=O)[C@@H](CC(C)C)NC(=O)[C@H](Cc1ccc(O)cc1)NC(=O)[C@H](CO)NC(=O)[C@H](Cc1c[nH]c2ccccc12)NC(=O)[C@H](Cc1c[nH]cn1)NC(=O)[C@@H]1CCC(=O)N1 [Lupron®, leuprolide acetate]
results versus higher Lupron dosage (Group 2) ([3]; G-CSF plus low dose Lupron 11.25 mg (Group 3)): not statistically different | results versus Group 2 ([3]; Lupron 22.5 mg on day 14 pre-chemotherapy (Group 4)): not statistically different | infection rates between the 2 groups ([4]; 3, 6 and 9 months from transplant): statistically different | WBC counts, mean days of severe Neutropenia (ANC <500/mm^3) and febrile neutropenia versus non-treated group ([4]; up to day 21 from transplantation): clinically and statistically significant reduction | incidence of viral and other infection rates between the two groups ([4]; up to month 1): not be statistically significant | patients with an increase in haemopoiesis (T cell analysis) and neutrophil count versus baseline [5]: approximately 70% | hemagglutination-inhibition antibody titer versus prior to therapy [6]: higher hemagglutination-inhibition antibody titer | duration of sex steroid ablation [7]: four months

IL-7: Recombinant human IL-7 provided by Cytheris
thymic cellularity, combined castration and IL-7 versus castrated group ([8]; day 14 after allo-HSCT): no significant difference | thymic cellularity, combined castration and IL-7 versus control ([8]; day 14 after allo-HSCT): significantly more cells | thymic cellularity, IL-7 treated sham-castrated versus PBS treated sham-castrated ([8]; day 14 after allo-HSCT, 10 μg/day i.p. days 0-13): no difference | thymic cellularity, IL-7 alone group versus control group ([8]; day 28 after allo-HSCT, IL-7 days 21-27): significantly higher than the control group | effect of combination of IL-7 treatment and castration on thymic cellularity ([8]; day 28 after allogeneic HSCT): additive effect | proliferative effect on murine cells [9]: equal to murine IL-7

B1: G-CSF: granulocyte colony stimulating factor, Neupogen (Amgen) (protein, UniProt P09919 31-207, looked up)
Granulocyte …: TPLGPASSLPQSFLLKCLEQVRKIQGDGAALQEKLVSECATYKLCHPEELVLLGHSLGIPWAPLSSCPSQALQLAGCLSQLHSGLFLYQGLLQALEGISPELGPTLDTLQLDVADFATTIWQQMEELGMAPALQPTQGAMPAFASAFQRRAGGVLVASHLQSFLEVSYRVLRHLAQP
modifications: filgrastim, N-terminal Met
neutrophils ([10]; other Phase I/II trials): measurable increases in neutrophils | incidence of infection (febrile neutropenia, infection rates, in-patient hospitalization, antibiotic use) ([10]; small cell lung cancer, 4-8 μg/kg/day s.c. days 4-17 after chemotherapy, placebo-controlled): clinically and statistically significant decrease

B2: Neulasta®: Amgen product given as single SC dose on day 2 of each chemotherapy cycle; called GM-CSF in the text (protein, UniProt P09919 31-207, looked up)
Granulocyte …: TPLGPASSLPQSFLLKCLEQVRKIQGDGAALQEKLVSECATYKLCHPEELVLLGHSLGIPWAPLSSCPSQALQLAGCLSQLHSGLFLYQGLLQALEGISPELGPTLDTLQLDVADFATTIWQQMEELGMAPALQPTQGAMPAFASAFQRRAGGVLVASHLQSFLEVSYRVLRHLAQP
modifications: pegfilgrastim: PEGylated, N-terminal Met
notes: called GM-CSF in the text
rates of febrile Neutropenia ([10]; both studies): 10-20% | mean days of severe Neutropenia ([10]; metastatic breast cancer, administered day 2 of chemotherapy cycle, both studies): approximately 1.7 days
